# Measurements: ChEMBL document CHEMBL1153476, “Novel mannosyl derivatives of peptidoglycan monomer: Synthesis and biological evaluation of immunomodulatory properties” (2009)
# System: Mus musculus
# Test: Immunostimulatory activity against ovalbumin-stimulated immune response in mouse serum assessed as ratio of IgG1 to IgG2a at 200 ug, sc measured after 7 days by ELISA
# Assay type: functional
smiles,measurement,value
CC(=O)N[C@@H]1[C@@H](O[C@H](C)C(=O)N[C@@H](C)C(=O)N[C@H](CCC(=O)N[C@H](CCC[C@H](N)C(N)=O)C(=O)N[C@H](C)C(=O)N[C@H](C)C(=O)O)C(N)=O)[C@H](O[C@@H]2O[C@H](CO)[C@@H](O)[C@H](O)[C@H]2NC(C)=O)[C@@H](CO)O[C@H]1O,Ratio,2.6
